IC50 data for eleven compounds are collected here from patent publication US20240208997A1, “CYCLIC BENZIMIDAZOLE DERIVATIVES AS CGAS INHIBITORS” (Boehringer Ingelheim International GmbH, priority 2022, published 2024).

Structures are written as SMILES.

One test deals with IFN induction in dsDNA-stimulated human whole blood. The test is described as follows: Human whole blood assay (hWB IC50), dsDNA stimulated, IFNα2α production. The note with it: Table 1. In kind it is cell-based. As for the experimental part:
6.3 Method: Human Whole Blood Assay (Human WB IC50)
For the detection of cellular cGAS activity human whole blood was stimulated by transfection with double stranded DNA. Pathway activity was monitored by measuring the IFNα2α production.
Compounds were delivered as 10 mM DMSO solution and serially diluted and transferred to the 96-well cell culture plate (Corning #3595), prefilled with 20 μl OptiMEM (Gibco, #11058-021) in each well, using an Echo acoustic dispenser. Typically, 8 concentrations were used with the highest concentration at 10 μM in the final assay volume followed by ^˜1:5 dilution steps. DMSO concentration was set to 0.1% in the final assay volume. The 96-well assay plate contained 10 test compounds, and DMSO in control wells.
Collection of human whole blood from 3 or more healthy donors (male or female, no medication for 7 days except contraceptive and thyroxine) as Na-Citrate blood (e.g. 3.8% in Monovettes from Sarstedt) was conducted in parallel. Whole blood was kept at room temperature for a maximum of 3 hours after collection until use in the assay. 160 μl of the whole blood samples was transferred to each well of the 96-well assay plates filled with compound/OptiMEM. All assay plates were prepared as duplicates with blood from different donors. Blood plates were kept at room temperature for 60 minutes and continuous shaking with 450 rpm, covered with the lid, but not sealed.
20 μl OptiMEM and 9.6:1 Fugene was added to all low control wells.
After covering assay plates with aera seals and the lid, blood plates were kept at room temperature for 30 minutes and continuous shaking with 450 rpm, followed by an overnight incubation of 22 h at 37° C. in the incubator, without shaking.
For the detection of IFNα-2α in human plasma, the biotinylated capture antibody (Antibody set IFNA2, Meso Scale Diagnostics #B21VH-3, including coating and capture antibody) was diluted 1:17.5 in Diluent 100 (Meso Scale Diagnostics #R50AA-4), according to the manufacturer's directions. U-Plex MSD GOLD 96-well Small Spot Strepavidin SECTOR Plates (Meso Scale Diagnostics #L45SA-5) were coated with 25 μl diluted capture antibody. Coated plates were incubated for 60 min at room temperature under continuous shaking at 700 rpm. MSD IFNα-2α plates were washed three times with 150 μl wash buffer (1× HBSS, 0.05% Tween).
After blocking the plates with 100 μl block solution/well (1× HBSS with 0.2% Tween, 2% BSA) for 60 min at room temperature and continuous shaking at 700 rpm, plates were emptied as dry as possible by dumping just before continuing with the human plasma.
Whole Blood assay plates were centrifuged at 1600 rpm for 10 minutes. 25 μl of supernatant was transferred with a pipetting robot from each whole blood plate to the corresponding IFNα-2α plate. Plates were sealed with microplate seals and kept at room temperature again under continuous shaking at 700 rpm for two hours.
Next MSD IFNα-2α plates were washed three times with 150 μl wash buffer (1× HBSS, 0.05% Tween), before adding 25 μl MSD SULFO-TAG IFNα-2α Antibody solution (1:100 diluted in Diluent 3 (Meso Scale Diagnostics #R50AP-2) to each well of the plates.
Afterwards plates were sealed with microplate seals and kept at room temperature again under continuous shaking at 700 rpm for two hours. Finally, MSD IFNα-2α plates were washed three times with 150 μl wash buffer (1× HBSS, 0.05% Tween). 150 μl 2× Read buffer was added to each well and plates were immediately measured with the MSD Sector S600 Reader using the vendor barcode.
(§1) Data Evaluation and Calculation:
For data evaluation and calculation, % control calculation of each well was based on the mean of high (DNA stimulated control) and mean of low (unstimulated control) controls by using the following formula:
[counts(sample)−counts(low))/(counts(high)−counts(low))]*100
The IC50-values were calculated using the standard 4 parameter logistic regression formula. […]
Compound `O=C(O)[C@@H]1C[C@H]2CN1c1nc(nc3c1oc1ccccc13)COCCCC(F)(F)C(=O)N1CCC(CC1)n1c(nc3ccccc31)O2` [Example 8.01] displayed an IC50 of 35 nM.
In turn, `C[C@H]1CN2CC[C@@H]1n1c(nc3ccccc31)O[C@H]1C[C@@H](C(=O)O)N(C1)c1nc(nc3c1oc1ccccc13)C(F)(F)COCCCC2=O` [Example 4.01] returned an IC50 of 1 nM.
Compound `C[C@H]1CN2CC[C@@H]1n1c(nc3ccccc31)O[C@H]1C[C@@H](C(=O)O)N(C1)c1nc(nc3c1oc1ccccc13)C(F)(F)CCCCC(F)(F)C2=O` [Example 1.17] came in with an IC50 of 8 nM.
In turn, `C[C@H]1CN2CC[C@@H]1n1c(nc3cc(Cl)ccc31)O[C@H]1C[C@@H](C(=O)O)N(C1)c1nc(nc3c1oc1cc(Cl)ccc13)CCOCCCC2=O` [Example 1.08] returned an IC50 of 17 nM.
`C[C@H]1CN2CC[C@@H]1n1c(nc3ccccc31)O[C@H]1C[C@@H](C(=O)O)N(C1)c1nc(nc3c1oc1cc(Cl)ccc13)C(F)(F)CCCOCC2=O` [Example 1.22] registered an IC50 of 4 nM.
In the case of `C[C@H]1CN2CC[C@@H]1n1c(nc3ccccc31)O[C@H]1C[C@@H](C(=O)O)N(C1)c1nc(nc3c1oc1ccccc13)CCOCCOC2=O` (mixture of isomers) [Example 12.01], the midpoint of inhibition, the IC50, lay at 225 nM.
As for `C[C@H]1CN2CC[C@@H]1n1c(nc3cc(Cl)ccc31)O[C@H]1C[C@@H](C(=O)O)N(C1)c1nc(nc3c1oc1ccccc13)C(F)(F)OCCCCC2=O` [Example 6.01], the IC50 was found to be 3 nM.
On to `C[C@H]1CN2CC[C@@H]1n1c(nc3cc(F)ccc31)O[C@H]1C[C@@H](C(=O)O)N(C1)c1nc(nc3c1oc1cc(F)ccc13)C(F)(F)CCCCCC2=O` [Example 1.15], for which the IC50 turned out to be 3 nM.
Take `C[C@H]1CN2CC[C@@H]1n1c(nc3cc(Cl)ccc31)O[C@H]1C[C@@H](C(=O)O)N(C1)c1nc(nc3c1oc1ccccc13)COCCOCC2=O` [Example 1.11]: half-maximal inhibition (IC50) required 3 nM.
Still for that read-out and setting: then `Cc1cccc2c1nc1n2[C@H]2CCN(C[C@@H]2C)C(=O)CCCCCC(F)(F)c2nc(c3oc4ccccc4c3n2)N2C[C@H](C[C@H]2C(=O)O)O1` [Example 1.28], with 28 nM.
In turn, `C[C@H]1CN2CC[C@@H]1n1c(nc3ccc(Cl)cc31)O[C@H]1C[C@@H](C(=O)O)N(C1)c1nc(nc3c1oc1ccccc13)C(F)(F)CCCCCC2=O` [Example 1.13] registered an IC50 of 15 nM.

The test system of a further test is IFN induction in virus-stimulated THP1 cells. The test is described as follows: Human cGAS cell assay, virus-stimulated THP1-Dual cells (THP1(vir) IC50). The test is classed as cell-based. The note with it: THP-1, 18 h, Table 1, baculovirus-stimulated THP1-Dual cells, Lucia luciferase, 18 h, read-out: THP(vir) IC50.
Source text: 6.2 Method: Human cGAS Cell Assay and cGAMP Stimulated Counter Cell Assay (THP1(vir) IC50 and THP1(cGAMP) IC50)
THP1-Dual™ cells (InvivoGen #thpd-nfis) expressing IRF dependent Lucia luciferase reporter were used as basis for both assays. For the detection of cellular cGAS activity cells were stimulated by a baculovirus (pFastbac-1, Invitrogen, no coding insert) infection that delivers the cGAS enzyme stimulating double-stranded DNA (measurement of THP1(vir) IC50).
Pathway activity was monitored by measuring the Lucia luciferase activity induced by either DNA stimulated cGAS enzyme activity (measurement of THP1(vir) IC50) or by cGAMP directly (measurement of THP1(cGAMP) IC50, counter assay).
Compounds were delivered in 10 mM DMSO solution, serially diluted and transferred to the 384 well assay plate (Greiner #781201) using an Echo acoustic dispenser. Typically, 8 concentrations were used with the highest concentration at 10 μM in the final assay volume followed by ^˜1:5 dilution steps. DMSO concentration was set to 1% in the final assay volume. The 384 well assay plate contained […] (column 1-22), and DMSO in column 23 and 24.
Cells, cultivated according to manufacturer conditions, were harvested by centrifugation at 300 g/10 min and were then resuspended and diluted to 1.66E5 cells/ml in fresh cell culture medium (RPMI 1640 (Gibco #A10491-01), 10% FCS (Gibco #10500), 1× GlutaMax (Gibco #35050-061), 1× Pen/Strep solution (Gibco #15140-122), 100 μg/ml Normocin (InvivoGen #ant-nr), 100 μg/ml Zeocin (InvivoGen #ant-zn), 10 μg/ml Blasticidin S (Life Technologies #A11139-03)). The baculovirus solution was then added 1:200 (have varied according to virus batch) to the cells (measurement of THP1(vir) IC50).
30 μL of the cell/virus-mix were added to each well of the compound plate from column 1-23 via MultiDrop Combi dispenser (5000 cells/well). In column 24, 30 μl/5000 cells/well without virus were added as a low control.
The plates were then incubated for 18 h at 37° C. in a humidified incubator.
Following that, 15 μL of QuantiLuc detection reagent (InvivoGen #rep-qlcg5) were added to each well using a MultiDrop Combi. Measurement was done immediately after the addition using an EnVision reader (US-luminescence read-mode).
as §1
For data evaluation and calculation, the measurement of the low control was set as 0% control and the measurement of the high control was set as 100% control. The IC50 values were calculated using the standard 4 parameter logistic regression formula. Calculation: [y=(a−d)/(1+(x/c)^b)+d], a=low value, d=high value; x=conc M; c=IC50 M; b=slope
On to `O=C(O)[C@@H]1C[C@H]2CN1c1nc(nc3c1oc1ccccc13)COCCCC(F)(F)C(=O)N1CCC(CC1)n1c(nc3ccccc31)O2` [Example 8.01], for which the IC50 was found to be 39 nM.
On to `C[C@H]1CN2CC[C@@H]1n1c(nc3ccccc31)O[C@H]1C[C@@H](C(=O)O)N(C1)c1nc(nc3c1oc1ccccc13)C(F)(F)COCCCC2=O` [Example 4.01], for which the IC50 came out at 0.69 nM.
On to `C[C@H]1CN2CC[C@@H]1n1c(nc3ccccc31)O[C@H]1C[C@@H](C(=O)O)N(C1)c1nc(nc3c1oc1ccccc13)C(F)(F)CCCCC(F)(F)C2=O` [Example 1.17], for which the IC50 was determined as 13 nM.
On the same count and under the same terms, then `C[C@H]1CN2CC[C@@H]1n1c(nc3cc(Cl)ccc31)O[C@H]1C[C@@H](C(=O)O)N(C1)c1nc(nc3c1oc1cc(Cl)ccc13)CCOCCCC2=O` [Example 1.08], with 2.4 nM.
Take `C[C@H]1CN2CC[C@@H]1n1c(nc3ccccc31)O[C@H]1C[C@@H](C(=O)O)N(C1)c1nc(nc3c1oc1cc(Cl)ccc13)C(F)(F)CCCOCC2=O` [Example 1.22]: the IC50 worked out at 1.5 nM.
Same read-out and setting: next, `C[C@H]1CN2CC[C@@H]1n1c(nc3ccccc31)O[C@H]1C[C@@H](C(=O)O)N(C1)c1nc(nc3c1oc1ccccc13)CCOCCOC2=O` (mixture of isomers) [Example 12.01]: 240 nM; `C[C@H]1CN2CC[C@@H]1n1c(nc3cc(Cl)ccc31)O[C@H]1C[C@@H](C(=O)O)N(C1)c1nc(nc3c1oc1ccccc13)C(F)(F)OCCCCC2=O` [Example 6.01]: 3.1 nM.
In the case of `C[C@H]1CN2CC[C@@H]1n1c(nc3cc(F)ccc31)O[C@H]1C[C@@H](C(=O)O)N(C1)c1nc(nc3c1oc1cc(F)ccc13)C(F)(F)CCCCCC2=O` [Example 1.15], the IC50 is 7.1 nM.
In the case of `C[C@H]1CN2CC[C@@H]1n1c(nc3cc(Cl)ccc31)O[C@H]1C[C@@H](C(=O)O)N(C1)c1nc(nc3c1oc1ccccc13)COCCOCC2=O` [Example 1.11], the concentration for half-maximal inhibition (IC50) came out at 3.6 nM.
Take `Cc1cccc2c1nc1n2[C@H]2CCN(C[C@@H]2C)C(=O)CCCCCC(F)(F)c2nc(c3oc4ccccc4c3n2)N2C[C@H](C[C@H]2C(=O)O)O1` [Example 1.28]: the IC50 turned out to be 15 nM.
`C[C@H]1CN2CC[C@@H]1n1c(nc3ccc(Cl)cc31)O[C@H]1C[C@@H](C(=O)O)N(C1)c1nc(nc3c1oc1ccccc13)C(F)(F)CCCCCC2=O` [Example 1.13]: the IC50 worked out at 4.9 nM.

One may read the IC50 as the concentration at which inhibition is half-maximal.
